What was measured:
Settings in all cases: 72 h
Caco-2 [1] = test: cell viability relative to DMSO; higher = less toxic
Calu-3 [2] = test: as above
HepG2 [3] = test: as above
U2OS [4] = test: as above
Vero E6 [5] = test: as above
Caco-2 [6] = test: relative viability EC50 (midpoint between 100% and the lowest measured viability); higher = less toxic
Calu-3 [7] = test: as above
U2OS [8] = test: as above
Vero E6 [9] = test: as above
Caco-2 [10] = test: drug sensitivity score (DSS) for viability; higher = more toxic; extreme values may be limits of the assay
Calu-3 [11] = test: as above
HepG2 [12] = test: as above
U2OS [13] = test: as above
Vero E6 [14] = test: as above
HepG2 [15] = test: relative viability EC50 (midpoint between 100% and the lowest measured viability); higher = less toxic

Compound | cell viability (Caco-2 [1]; 1 nM) | cell viability (Caco-2 [1]; 10 nM) | cell viability (Caco-2 [1]; 100 nM) | cell viability (Caco-2 [1]; 1000 nM) | cell viability (Caco-2 [1]; 10000 nM) | cell viability (Calu-3 [2]; 1 nM) | cell viability (Calu-3 [2]; 10 nM) | cell viability (Calu-3 [2]; 100 nM) | cell viability (Calu-3 [2]; 1000 nM) | cell viability (Calu-3 [2]; 10000 nM) | cell viability (HepG2 [3]; 1 nM) | cell viability (HepG2 [3]; 10 nM) | cell viability (HepG2 [3]; 100 nM) | cell viability (HepG2 [3]; 1000 nM) | cell viability (HepG2 [3]; 10000 nM) | cell viability (U2OS [4]; 1 nM) | cell viability (U2OS [4]; 10 nM) | cell viability (U2OS [4]; 100 nM) | cell viability (U2OS [4]; 1000 nM) | cell viability (U2OS [4]; 10000 nM) | cell viability (Vero E6 [5]; 1 nM) | cell viability (Vero E6 [5]; 10 nM) | cell viability (Vero E6 [5]; 100 nM) | cell viability (Vero E6 [5]; 1000 nM) | cell viability (Vero E6 [5]; 10000 nM) | relative viability EC50 (Caco-2 [6]) | relative viability EC50 (Calu-3 [7]) | relative viability EC50 (U2OS [8]) | relative viability EC50 (Vero E6 [9]) | drug sensitivity score (Caco-2 [10]) | drug sensitivity score (Calu-3 [11]) | drug sensitivity score (HepG2 [12]) | drug sensitivity score (U2OS [13]) | drug sensitivity score (Vero E6 [14]) | relative viability EC50 (HepG2 [15])
CCCOc1ccc(Br)cc1-c1cc(-c2ccc(Cl)cc2)[nH]c1-c1ccncc1 | 95.3% | 95.3% | 93.6% | 100% | 84.8% | 99.6% | 96.3% | 103% | 94.2% | 103% | 104% | 97.7% | 96.1% | 101% | 65.9% | 104% | 106% | 104% | 97.5% | 98.6% | 95.6% | 102% | 99.7% | 98% | 85.7% | > 10 µM | > 10 µM | > 10 µM | > 10 µM | 0.2 | 0 | 1.5 | 0 | 0.4 | –
CCOC(=O)CNC(=O)[C@@H]1CCCN1C(=O)Cc1ccccc1 [DVD-111] | 110% | 102% | 114% | 97% | 107% | 106% | 98.4% | 106% | 93.7% | 116% | 98.8% | 97.2% | 90.9% | 93.5% | 96.9% | – | – | – | – | – | 103% | 105% | 98.8% | 104% | 101% | > 10 µM | > 10 µM | – | > 10 µM | 0 | 0 | 0 | – | 0 | > 10 µM
Cc1cccc(C)c1NC(=O)C[N+](C)(C)C [QX-222] | 107% | 97% | 99.1% | 100% | 112% | 102% | 93.8% | 107% | 94.9% | 106% | 106% | 103% | 99% | 95.5% | 95.8% | – | – | – | – | – | 102% | 101% | 98.7% | 105% | 99.7% | > 10 µM | > 10 µM | – | > 10 µM | 0 | 0 | 0 | – | 0 | > 10 µM
CCc1cccc(CC)c1NC(=O)c1nn(C)c2c1CCc1cnc(Nc3ccc(C(=O)NC4CCN(C)CC4)cc3OC(F)(F)F)nc1-2 [NMS-P715] | – | – | – | – | – | 91.9% | 97.7% | 98.8% | 105% | 104% | 114% | 103% | 107% | 112% | 48.2% | 95.9% | 99.7% | 98.1% | 102% | 98.7% | 104% | 88.8% | 104% | 94.7% | 84.7% | – | > 10 µM | > 10 µM | > 10 µM | – | 0 | 2.1 | 0 | 0.7 | 3.99 µM
CC(=O)Nc1nc2c(Oc3cc(-c4ccc(C(F)(F)F)cc4)ncn3)cccc2s1 [AMG-517] | 102% | 96.5% | 103% | 97.2% | 94.4% | 104% | 86.1% | 100% | 92.4% | 92.5% | 112% | 98.3% | 95.4% | 102% | 91.8% | – | – | – | – | – | 101% | 102% | 101% | 102% | 99.4% | > 10 µM | > 10 µM | – | > 10 µM | 0 | 0 | 0 | – | 0 | > 10 µM
CCOC(=O)c1ncn2c1CN(C)C(=O)c1cc(N=[N+]=[N-])ccc1-2 [Ro-15-4513] | 96.2% | 100% | 94.6% | 99.6% | 109% | 103% | 93.9% | 97% | 102% | 108% | 107% | 92.2% | 102% | 99.1% | 112% | – | – | – | – | – | 94.6% | 94% | 99.3% | 97.2% | 104% | > 10 µM | > 10 µM | – | > 10 µM | 0 | 0 | 0 | – | 0 | > 10 µM
NC[C@@](O)(c1ccc(Cl)cc1)c1ccc(-c2cn[nH]c2)cc1 | 93.7% | 104% | 104% | 99.9% | 70% | 98.5% | 99.9% | 119% | 144% | 105% | 89.6% | 93.2% | 111% | 93.8% | 79.5% | 104% | 103% | 95.5% | 94.6% | 44.4% | 101% | 104% | 97.5% | 70.5% | 30.7% | – | > 10 µM | 2.36 µM | 1.16 µM | 1.3 | 0 | 1.4 | 3.9 | 7.4 | > 10 µM
COC[C@@H](c1ccc(C(F)(F)F)cc1)N1CCN(C2(C)CCN(C(=O)c3c(C)ncnc3C)CC2)C[C@@H]1C [vicriviroc] | – | – | – | – | – | 106% | 93.6% | 104% | 96.6% | 104% | 98.8% | 101% | 98.9% | 101% | 84.8% | 100% | 94.2% | 95% | 96.6% | 95% | 95.3% | 97% | 89.9% | 95.7% | 94.7% | – | > 10 µM | > 10 µM | > 10 µM | – | 0 | 0.2 | 0 | 0 | > 10 µM
C=CCc1cccc(/C=N/NC(=O)CN2CCN(Cc3ccccc3)CC2)c1O [PAC-1] | 98.2% | 102% | 91.5% | 82.3% | 8% | 89.6% | 103% | 102% | 101% | 15.8% | 104% | 105% | 94% | 87% | 11.5% | 97.5% | 101% | 95.9% | 96.6% | 50.6% | 103% | 103% | 104% | 95.9% | 48.7% | 1.77 µM | 3.25 µM | – | 2.52 µM | 8 | 4.6 | 7.1 | 3.1 | 3.3 | 2 µM
CCN(CC)C(=O)[C@@]1(c2ccccc2)C[C@H]1CN [milnacipran] | 99.9% | 87.3% | 87.5% | 99.8% | 98.7% | 106% | 93.5% | 97.9% | 95% | 97.9% | 101% | 86.7% | 98.9% | 107% | 90.9% | – | – | – | – | – | 94.6% | 102% | 97.8% | 102% | 98.2% | > 10 µM | > 10 µM | – | > 10 µM | 0 | 0 | 0 | – | 0 | > 10 µM
CC(C)Oc1cccc(-n2c(CCc3c[nH]c4ccc(Br)cc34)nc3ccccc3c2=O)c1 | 94.9% | 101% | 101% | 99.1% | 73.3% | 95.6% | 93.9% | 92.9% | 112% | 108% | 119% | 97.9% | 107% | 85.9% | 92.3% | 98.6% | 103% | 98% | 102% | 97.8% | 102% | 101% | 100% | 99.7% | 99.3% | – | > 10 µM | > 10 µM | > 10 µM | 1.2 | 0 | 1 | 0 | 0 | > 10 µM
Nc1nccc2c1ncn2C1C=C(CO)C(O)C1O (configuration not stated) [3-deazaneplanocin-A] | 102% | 104% | 99.3% | 88% | 77% | 97.4% | 97.5% | 108% | 85.9% | 89.9% | 105% | 106% | 86.7% | 62.7% | 25.7% | 105% | 97.4% | 91.8% | 69.3% | 57.8% | 98.8% | 100% | 89.1% | 56.6% | 36.2% | > 10 µM | > 10 µM | – | 0.47 µM | 2 | 1 | 8.8 | 6.3 | 9.4 | 0.832 µM
COC(=O)/C=C/C(=O)OCCN1C(=O)CCC1=O [diroximel-fumarate] | 109% | 104% | 107% | 97.6% | 92.4% | 112% | 112% | 120% | 92.5% | 123% | 103% | 115% | 87.7% | 115% | 52.1% | 101% | 101% | 105% | 103% | 98.9% | 98.4% | 102% | 92.2% | 99% | 106% | > 10 µM | > 10 µM | > 10 µM | > 10 µM | 0 | 0 | 1.8 | 0 | 0 | –
OC(c1ccc(-c2ccc(CN3CCN(Cc4ccncc4)CC3)cc2)c(F)c1)(C(F)(F)F)C(F)(F)F [SR-2211] | 113% | 95.4% | 101% | 86.4% | 76.1% | 101% | 101% | 93.6% | 95.9% | 95.5% | 94.2% | 101% | 98.8% | 95.4% | 58% | 98.4% | 106% | 102% | 102% | 95.7% | 103% | 99.8% | 103% | 100% | 103% | > 10 µM | > 10 µM | > 10 µM | > 10 µM | 2.4 | 0 | 2.9 | 0 | 0 | –
CCOC(=O)OC(C)OC(=O)[C@@H]1N2C(=O)[C@@H](NC(=O)[C@H](N)c3ccccc3)[C@H]2SC1(C)C (some centres not stated) [bacampicillin] | 96.3% | 94% | 95.9% | 98% | 104% | 94.1% | 82.4% | 102% | 103% | 110% | 97.6% | 114% | 103% | 100% | 94.6% | – | – | – | – | – | 91.8% | 96.7% | 97.9% | 98.1% | 98.6% | > 10 µM | > 10 µM | – | > 10 µM | 0 | 0 | 0 | – | 0 | > 10 µM
